In the NIST ThermoML archive (doi:10.1016/j.jct.2017.06.001):

Assay: xn = mol fraction of the nth substance listed
Conditions: 100 kPa, Liquid; for speed of sound: Frequency=5 MHz, Pulse-echo method; for mass density: Vibrating tube method

OCCCCCO [1,5-pentanediol] + O
Conditions	mass density [kg/m3]	speed of sound [m/s]
303.15 K, x1 = 0.005	995.24	–
303.15 K, x1 = 0.0101	995.18	–
303.15 K, x1 = 0.0196	995.46	–
303.15 K, x1 = 0.0251	995.87	–
303.15 K, x1 = 0.0304	996.33	–
303.15 K, x1 = 0.05	997.59	–
303.15 K, x1 = 0.0769	998.6	–
303.15 K, x1 = 0.1002	999.37	–
303.15 K, x1 = 0.1172	–	1668.9
303.15 K, x1 = 0.1188	–	1669.4
303.15 K, x1 = 0.1225	–	1670.4
303.15 K, x1 = 0.1232	–	1670.5
303.15 K, x1 = 0.127	–	1671.5
303.15 K, x1 = 0.1286	–	1671.8
303.15 K, x1 = 0.1312	–	1672.4
303.15 K, x1 = 0.1344	–	1673
303.15 K, x1 = 0.135	–	1673.1
303.15 K, x1 = 0.1389	–	1673.8
303.15 K, x1 = 0.1394	–	1673.8
303.15 K, x1 = 0.1438	999.75	–
303.15 K, x1 = 0.1443	–	1674.5
303.15 K, x1 = 0.1445	–	1674.6
303.15 K, x1 = 0.1496	–	1675.2
303.15 K, x1 = 0.1507	–	1675.3
303.15 K, x1 = 0.1548	–	1675.7
303.15 K, x1 = 0.1571	–	1675.9
303.15 K, x1 = 0.1598	–	1676.1
303.15 K, x1 = 0.163	–	1676.3
303.15 K, x1 = 0.1658	–	1676.5
303.15 K, x1 = 0.1708	–	1676.7
303.15 K, x1 = 0.1802	–	1676.9
303.15 K, x1 = 0.1845	999.44	–
303.15 K, x1 = 0.1897	–	1677
303.15 K, x1 = 0.1979	–	1676.8
303.15 K, x1 = 0.2069	–	1676.6
303.15 K, x1 = 0.2148	–	1676.3
303.15 K, x1 = 0.2235	–	1675.9
303.15 K, x1 = 0.2319	–	1675.5
303.15 K, x1 = 0.2409	–	1674.9
303.15 K, x1 = 0.2503	998.42	–
303.15 K, x1 = 0.2504	–	1674.3
303.15 K, x1 = 0.2626	–	1673.4
303.15 K, x1 = 0.2732	–	1672.6
303.15 K, x1 = 0.2834	–	1671.8
303.15 K, x1 = 0.2953	–	1670.8
303.15 K, x1 = 0.3	997.34	–
303.15 K, x1 = 0.3083	–	1669.6
303.15 K, x1 = 0.3214	–	1668.4
303.15 K, x1 = 0.3343	996.61	–
303.15 K, x1 = 0.3389	–	1666.8
303.15 K, x1 = 0.3516	–	1665.5
303.15 K, x1 = 0.3648	–	1664.2
303.15 K, x1 = 0.3773	–	1662.8
303.15 K, x1 = 0.3937	–	1661.1
303.15 K, x1 = 0.4071	–	1659.6
303.15 K, x1 = 0.4171	994.93	–
303.15 K, x1 = 0.4199	–	1658.1
303.15 K, x1 = 0.4346	–	1656.3
303.15 K, x1 = 0.447	–	1654.8
303.15 K, x1 = 0.454	994.03	–
303.15 K, x1 = 0.4637	–	1652.8
303.15 K, x1 = 0.4812	–	1650.5
303.15 K, x1 = 0.4955	–	1648.6
303.15 K, x1 = 0.5003	993	–
303.15 K, x1 = 0.5124	–	1646.4
303.15 K, x1 = 0.5315	–	1643.8
303.15 K, x1 = 0.5362	992.2	–
303.15 K, x1 = 0.5497	–	1641.2
303.15 K, x1 = 0.5687	–	1638.5
303.15 K, x1 = 0.5883	–	1635.7
303.15 K, x1 = 0.6098	–	1632.7
303.15 K, x1 = 0.6177	990.7	–
303.15 K, x1 = 0.63	–	1629.8
303.15 K, x1 = 0.6445	–	1627.7
303.15 K, x1 = 0.6478	990.1	–
303.15 K, x1 = 0.6622	–	1625.2
303.15 K, x1 = 0.6847	–	1622
303.15 K, x1 = 0.7025	989.2	–
303.15 K, x1 = 0.7039	–	1619.3
303.15 K, x1 = 0.7252	–	1616.4
303.15 K, x1 = 0.7448	–	1613.7
303.15 K, x1 = 0.7504	988.4	–
303.15 K, x1 = 0.7674	–	1610.7
303.15 K, x1 = 0.7881	–	1608.1
303.15 K, x1 = 0.7927	987.6	–
303.15 K, x1 = 0.8098	–	1605.3
303.15 K, x1 = 0.8318	–	1602.6
303.15 K, x1 = 0.8478	–	1600.6
303.15 K, x1 = 0.8605	986.4	–
303.15 K, x1 = 0.8678	–	1598.2
303.15 K, x1 = 0.8839	–	1596.3
303.15 K, x1 = 0.9004	985.7	–
303.15 K, x1 = 0.9005	–	1594.4
303.15 K, x1 = 0.9185	–	1592.2
303.15 K, x1 = 0.9359	–	1590.2
303.15 K, x1 = 0.9494	–	1588.6
303.15 K, x1 = 0.9496	984.6	–
303.15 K, x1 = 0.9623	–	1587.1
303.15 K, x1 = 0.9723	–	1585.9
303.15 K, x1 = 0.9822	–	1584.7
303.15 K, x1 = 0.9892	–	1583.9
303.15 K, x1 = 0.9947	–	1583.2
303.15 K, x1 = 0.9972	–	1582.9
303.15 K, x1 = 1	983.6	1582.5
308.15 K, x1 = 0.0001	–	1519.6
308.15 K, x1 = 0.0003	–	1520.1
308.15 K, x1 = 0.0005	–	1520.7
308.15 K, x1 = 0.0007	–	1521.5
308.15 K, x1 = 0.001	–	1522.4
308.15 K, x1 = 0.0014	–	1523.4
308.15 K, x1 = 0.0018	–	1524.7
308.15 K, x1 = 0.0023	–	1526.2
308.15 K, x1 = 0.0028	–	1527.9
308.15 K, x1 = 0.0034	–	1529.7
308.15 K, x1 = 0.004	–	1531.4
308.15 K, x1 = 0.0047	–	1533.5
308.15 K, x1 = 0.0055	–	1535.7
308.15 K, x1 = 0.0064	–	1538.1
308.15 K, x1 = 0.0073	–	1540.8
308.15 K, x1 = 0.0083	–	1543.6
308.15 K, x1 = 0.0094	–	1546.5
308.15 K, x1 = 0.0105	–	1549.3
308.15 K, x1 = 0.0116	–	1552.2
308.15 K, x1 = 0.0129	–	1555.4
308.15 K, x1 = 0.0141	–	1558.3
308.15 K, x1 = 0.0154	–	1561.5
308.15 K, x1 = 0.0167	–	1564.5
308.15 K, x1 = 0.0181	–	1567.6
308.15 K, x1 = 0.0195	–	1570.7
308.15 K, x1 = 0.0211	–	1574.1
308.15 K, x1 = 0.0225	–	1577
308.15 K, x1 = 0.0238	–	1579.8
308.15 K, x1 = 0.0252	–	1582.6
308.15 K, x1 = 0.0268	–	1585.5
308.15 K, x1 = 0.0283	–	1588.5
308.15 K, x1 = 0.0298	–	1591.2
308.15 K, x1 = 0.0316	–	1594.3
308.15 K, x1 = 0.0336	–	1597.7
308.15 K, x1 = 0.0351	–	1600.2
308.15 K, x1 = 0.0367	–	1602.6
308.15 K, x1 = 0.0384	–	1605.2
308.15 K, x1 = 0.0403	–	1608.1
308.15 K, x1 = 0.0417	–	1610
308.15 K, x1 = 0.0436	–	1612.7
308.15 K, x1 = 0.0459	–	1615.8
308.15 K, x1 = 0.0481	–	1618.5
308.15 K, x1 = 0.0505	–	1621.5
308.15 K, x1 = 0.0528	–	1624
308.15 K, x1 = 0.0551	–	1626.6
308.15 K, x1 = 0.0574	–	1629
308.15 K, x1 = 0.0594	–	1631
308.15 K, x1 = 0.062	–	1633.4
308.15 K, x1 = 0.0648	–	1635.9
308.15 K, x1 = 0.0671	–	1637.9
308.15 K, x1 = 0.0706	–	1640.7
308.15 K, x1 = 0.073	–	1642.4
308.15 K, x1 = 0.0758	–	1644.4
